Patent US20240409574A1, “SMALL MOLECULES FOR DOT1L DEGRADATION AND USES THEREOF” (DANA-FARBER CANCER INSTITUTE, INC., priority 2021, published 2024)

Experiments:
DOT1L [1] = target: T1, DOT1L (Homo sapiens, UniProt Q8TEK3); test: Western blot of DOT1L degradation in EOL1 cells; assay type: cell-based; parameters: degraded DOT1L in EOL1 cells; endogenous in cells; host or cells: EOL1; settings: FIG. 4A, 6A, 9A
Target sequence in this assay (Q8TEK3 whole entry): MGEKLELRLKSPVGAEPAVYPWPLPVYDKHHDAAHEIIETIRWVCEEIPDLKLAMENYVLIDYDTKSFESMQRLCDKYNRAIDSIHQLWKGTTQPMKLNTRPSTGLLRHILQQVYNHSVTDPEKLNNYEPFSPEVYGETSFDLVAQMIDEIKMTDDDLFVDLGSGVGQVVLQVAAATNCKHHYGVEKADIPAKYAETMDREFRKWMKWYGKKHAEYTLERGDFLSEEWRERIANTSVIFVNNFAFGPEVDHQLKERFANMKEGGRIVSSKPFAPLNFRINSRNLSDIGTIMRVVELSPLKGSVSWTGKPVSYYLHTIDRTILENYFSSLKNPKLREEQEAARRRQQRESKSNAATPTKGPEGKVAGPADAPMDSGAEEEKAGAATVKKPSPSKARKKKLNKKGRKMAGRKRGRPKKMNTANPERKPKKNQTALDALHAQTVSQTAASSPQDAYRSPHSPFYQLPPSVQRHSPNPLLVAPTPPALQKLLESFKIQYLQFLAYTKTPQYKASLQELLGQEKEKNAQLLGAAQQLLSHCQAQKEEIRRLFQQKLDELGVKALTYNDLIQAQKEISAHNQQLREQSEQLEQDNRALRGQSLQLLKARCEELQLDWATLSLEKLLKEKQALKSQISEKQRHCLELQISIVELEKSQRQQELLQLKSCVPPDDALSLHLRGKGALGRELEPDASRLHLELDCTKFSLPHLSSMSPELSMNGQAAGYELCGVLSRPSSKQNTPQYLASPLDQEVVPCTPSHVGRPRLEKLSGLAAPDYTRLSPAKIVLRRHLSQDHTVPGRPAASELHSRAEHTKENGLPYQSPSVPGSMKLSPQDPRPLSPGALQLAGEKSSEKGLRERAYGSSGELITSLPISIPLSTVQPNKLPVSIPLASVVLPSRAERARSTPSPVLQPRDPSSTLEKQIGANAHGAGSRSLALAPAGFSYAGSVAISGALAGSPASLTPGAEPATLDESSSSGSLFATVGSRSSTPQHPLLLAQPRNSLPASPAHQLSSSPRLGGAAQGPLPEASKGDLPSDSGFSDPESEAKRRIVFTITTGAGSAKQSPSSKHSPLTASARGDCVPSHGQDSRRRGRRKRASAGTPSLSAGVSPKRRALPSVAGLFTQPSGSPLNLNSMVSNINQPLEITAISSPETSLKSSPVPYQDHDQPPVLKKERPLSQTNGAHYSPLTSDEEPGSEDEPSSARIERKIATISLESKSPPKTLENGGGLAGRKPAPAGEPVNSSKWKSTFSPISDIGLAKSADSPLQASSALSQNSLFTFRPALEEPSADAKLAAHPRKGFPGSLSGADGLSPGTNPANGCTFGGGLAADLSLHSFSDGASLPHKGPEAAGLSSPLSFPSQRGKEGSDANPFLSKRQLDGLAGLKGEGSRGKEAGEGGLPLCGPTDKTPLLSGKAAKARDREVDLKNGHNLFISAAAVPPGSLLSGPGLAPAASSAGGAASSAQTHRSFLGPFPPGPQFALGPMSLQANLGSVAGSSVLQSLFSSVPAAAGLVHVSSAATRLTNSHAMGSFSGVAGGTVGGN
DOT1L:CRBN = DOT1L:CRBN (Homo sapiens, UniProt Q8TEK3+Q96SW2); test: DOT1L:CRBN-DDB1 dimerization assay (AlphaScreen); assay type: binding; settings: FIG. 2, GST-CRBN-DDB1 and 6xHIS DOT1L 125 nM
Chain of DOT1L:CRBN (Q8TEK3 whole entry, species assumed): as the sequence (Q8TEK3 whole entry) above
Chain of DOT1L:CRBN (Q96SW2 whole entry, species assumed): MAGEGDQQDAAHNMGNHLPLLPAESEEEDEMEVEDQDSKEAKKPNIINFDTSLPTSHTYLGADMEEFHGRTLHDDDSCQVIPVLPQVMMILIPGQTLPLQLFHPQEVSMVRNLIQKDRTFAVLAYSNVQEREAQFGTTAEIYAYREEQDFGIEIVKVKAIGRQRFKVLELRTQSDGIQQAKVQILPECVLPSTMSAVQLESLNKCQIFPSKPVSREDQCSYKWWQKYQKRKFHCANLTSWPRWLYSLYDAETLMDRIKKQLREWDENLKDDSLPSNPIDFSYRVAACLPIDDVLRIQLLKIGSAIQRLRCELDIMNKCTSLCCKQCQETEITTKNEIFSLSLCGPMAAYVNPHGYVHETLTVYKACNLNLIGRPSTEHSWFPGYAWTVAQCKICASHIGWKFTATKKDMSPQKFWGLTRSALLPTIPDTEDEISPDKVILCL
Chain of DOT1L:CRBN (Q16531 whole entry partner, species assumed): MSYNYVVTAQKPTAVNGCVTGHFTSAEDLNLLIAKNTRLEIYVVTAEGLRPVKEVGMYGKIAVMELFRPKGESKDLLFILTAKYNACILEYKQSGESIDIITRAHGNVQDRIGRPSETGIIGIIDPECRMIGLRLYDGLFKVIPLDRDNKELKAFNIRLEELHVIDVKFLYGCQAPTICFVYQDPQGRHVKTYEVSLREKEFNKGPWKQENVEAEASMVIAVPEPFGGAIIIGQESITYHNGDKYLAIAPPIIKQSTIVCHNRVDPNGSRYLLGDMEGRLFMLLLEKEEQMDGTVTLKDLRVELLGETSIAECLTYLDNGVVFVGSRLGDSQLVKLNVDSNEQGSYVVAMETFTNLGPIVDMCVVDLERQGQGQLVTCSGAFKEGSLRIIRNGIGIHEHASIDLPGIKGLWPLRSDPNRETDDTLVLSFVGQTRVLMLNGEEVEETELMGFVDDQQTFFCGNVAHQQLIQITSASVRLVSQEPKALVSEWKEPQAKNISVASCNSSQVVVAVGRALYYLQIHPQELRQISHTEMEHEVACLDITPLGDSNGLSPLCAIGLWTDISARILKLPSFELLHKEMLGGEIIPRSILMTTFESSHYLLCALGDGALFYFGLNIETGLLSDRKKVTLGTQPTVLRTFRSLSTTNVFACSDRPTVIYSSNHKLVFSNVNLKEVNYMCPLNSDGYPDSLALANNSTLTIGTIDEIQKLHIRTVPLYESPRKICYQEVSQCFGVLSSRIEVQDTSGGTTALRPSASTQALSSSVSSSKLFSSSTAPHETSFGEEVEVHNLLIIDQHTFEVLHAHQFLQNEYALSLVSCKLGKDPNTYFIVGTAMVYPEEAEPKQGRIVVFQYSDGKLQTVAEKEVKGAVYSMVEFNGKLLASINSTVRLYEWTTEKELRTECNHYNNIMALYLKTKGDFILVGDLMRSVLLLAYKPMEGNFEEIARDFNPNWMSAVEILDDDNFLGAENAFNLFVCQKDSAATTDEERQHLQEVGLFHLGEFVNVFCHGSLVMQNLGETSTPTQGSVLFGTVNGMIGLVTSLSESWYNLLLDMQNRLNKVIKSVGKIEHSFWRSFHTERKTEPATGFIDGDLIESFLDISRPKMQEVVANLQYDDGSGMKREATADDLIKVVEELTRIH
Protocol: Example 14: DOT1L:Cereblon (CRBN)-DNA Damage-Binding Protein 1 (DDB1)/DOT1L Dimerization Assay
GST-CRBN-DDB1 and DOT1L (6×HIS-tagged) were both diluted to 125 nM in assay buffer (50 mM 2-[4-(2-Hydroxyethyl)piperazin-1-yl]ethane-1-sulfonic acid (HEPES) pH 7.4, 150 mM NaCl, and 0.01% Tween®, 2, 0.1% bovine serum albumin (BSA)), and 20 μL of protein mixture was added to each well of a 384-well AlphaPlate™ (PerkinElmer®). Compounds were then added at 100 nL per well from DMSO stock plates using a Janus®, Workstation (PerkinElmer®). Following a 1-hour incubation at room temperature, 20 μL Nickel Chelate AlphaLISA® Acceptor and Glutathione AlphaLISA® Donor beads (PerkinElmer®) diluted to 20 ng/μl in assay buffer was added to each well. After a 1-hour incubation at room temperature, luminescence was measured on the Envision® 2104 plate reader (PerkinElmer®). Data were analyzed and plotted using GraphPad PRISM v6 and dimerization amplitude, mean, and s.d. values were determined using the ‘Gaussian’ analysis module.
DOT1L:CRBN dimerization by inventive bifunctional compounds 2, 3, and 6, and pomalidomide and EPZ5676 was assessed by AlphaScreen® assay.

MV411 cells = test: Cell proliferation assay in MV411 cells (trypan blue cell counts); assay type: cell-based, human; settings: FIG. 5B, 10B
Protocol: Example 16: Cell Proliferation Assays in MV411 (Human Myelomonocytic Leukemia) Cells with Inventive Bifunctional Compounds
(§1) MV411 cells were seeded into a 6-well plate at a density of 0.25×10^6 cells/well and then treated compounds with indicated concentration and incubated for the indicated times. After staining with trypan blue, cell counts were performed using a Countess® II FL Automated Cell Counter (ThermoFisher Scientific).

DOT1L [2] = target: T1, DOT1L; test: DOT1L fluorescence polarization (FP) displacement assay; assay type: binding; settings: FIG. 1
Protocol: Example 13: Cellular Disruptor of Telomeric Silencing 1-Like (DOT1L) Fluorescence Polarization (FP) Displacement Assay
DOT1L FP displacement assays were conducted with inventive bifunctional compounds 2, 3, and 6, and pomalidomide and positive control EPZ5676 at different concentrations [M], measured in [M] per mP.
Target sequence in this assay (Q8TEK3 whole entry, species assumed): as the sequence (Q8TEK3 whole entry) above

DOT1L [3] = target: T1, DOT1L; test: Western blot of DOT1L degradation in MV411 cells; assay type: cell-based; parameters: endogenous in cells; settings: FIG. 5A, 10A
Target sequence in this assay (Q8TEK3 whole entry): as above

EOL1 cells = test: Cell proliferation assay in EOL1 cells (trypan blue cell counts); assay type: cell-based, human; settings: FIG. 3, 4B, 6B, 7, 8, 9B
Protocol: Example 15: Cell Proliferation Assays in EOL1 (Human Eosinophilic Leukaemia) Cells with Inventive Bifunctional Compounds
as §1, with “EOL1” for “MV411”

SEMK2 cells = test: Cell proliferation assay in SEMK2 cells (trypan blue cell counts); assay type: cell-based; settings: FIG. 11
Protocol: Example 17: Cell Proliferation Assays in SEMK2 (B Acute Lymphoblastic Leukemia) Cells with Inventive Bifunctional Compounds
as §1, with “SEMK2” for “MV411”

THP1 cells = test: Cell proliferation assay in THP1 cells (trypan blue cell counts); assay type: cell-based; settings: FIG. 12
Protocol: Example 18: Cell Proliferation Assays in THP1 (Acute Monocytic Leukemia) Cells with Inventive Bifunctional Compounds
as §1, with “THP1” for “MV411”

CC(C)N(C[C@H]1O[C@@H](n2cnc3c(NCCCCNC(=O)CCCCCCCCCCCCCCCNc4cccc5c4C(=O)N(C4CCC(=O)NC4=O)C5=O)ncnc32)[C@H](O)[C@@H]1O)C1CC(CCc2nc3cc(C(C)(C)C)ccc3[nH]2)C1 (stereo partly drawn) [Compound 2, N-(4-((9-((2R,3R,4S,5R)-5-((3-(2-(5-(tert-butyl)-1H-benzo[d]imidazol-2-yl)ethyl)cyclobutyl)(isopropyl)amino)methyl)-3,4-dihydroxytetrahydrofuran-2-yl)-9H-purin-6-yl)amino)butyl)-16-((2-(2,6-dioxopiperidin-3-yl)-1,3-dioxoisoindolin-4-ylamino)hexadecanamide]
DOT1L degradation in EOL1 cells (DOT1L [1]): degraded DOT1L in EOL1 cells and in a dose dependent manner up to 2.5 μM
formation of ternary complexes between DOT1L and CRBN (DOT1L:CRBN): induced the formation of ternary complexes between the DOT1L and CRBN
MV411 cell viability (MV411 cells): reduced MV411 cell viability in a dose dependent manner and at early time points
DOT1L binding via displacement of FITC-probe in FP assay (DOT1L [2]): bound DOT1L via displacement of fluorescein isothiocyanate (FITC)-probe in FP assay
DOT1L degradation in MV411 cells (DOT1L [3]): degraded DOT1L in MV411 cells and in a dose dependent manner up to 10.0 μM
EOL1 cell viability (EOL1 cells): reduced EOL1 cell viability in a dose dependent manner and at early time points

CC(C)N(C[C@H]1O[C@@H](n2cnc3c(NCCCCNC(=O)CCCCCCCCCCCCCCCNc4cccc5c4C(=O)N(C4CCC(=O)NC4=O)C5=O)ncnc32)[C@H](O)[C@@H]1O)C1CC(CCc2nc3cc(C(C)(C)C)ccc3[nH]2)C1 (some centres unmarked) [Compound 3]
DOT1L degradation in EOL1 cells (DOT1L [1]): degraded DOT1L in EOL1 cells and in a dose dependent manner up to 5.0 μM
formation of ternary complexes between DOT1L and CRBN (DOT1L:CRBN): induced the formation of ternary complexes between the DOT1L and CRBN
DOT1L binding via displacement of FITC-probe in FP assay (DOT1L [2]): bound DOT1L via displacement of fluorescein isothiocyanate (FITC)-probe in FP assay
EOL1 cell viability (EOL1 cells): reduced EOL1 cell viability in a dose dependent manner and at early time points

Cc1ncsc1-c1ccc(CNC(=O)[C@H]2C[C@H](O)CN2C(=O)[C@H](NC(=O)CCCCCCCNC(=O)CCCC(=O)NCCCCNc2ncnc3c2ncn3[C@@H]2O[C@H](CN(C(C)C)C3CC(CCc4nc5cc(C(C)(C)C)ccc5[nH]4)C3)[C@@H](O)[C@H]2O)C(C)(C)C)cc1 (stereo partly drawn) [Compound 4, N1-(4-((9-((2R,3R,4S,5R)-5-(((3-(2-(5-(tert-butyl)-1H-benzo[d]imidazol-2-yl)ethyl)cyclobutyl)(isopropyl)amino)methyl)-3,4-dihydroxytetrahydrofuran-2-yl)-9H-purin-6-yl)amino)butyl)-N5-(8-(((R)-1-((2R,4S)-4-hydroxy-2-((4-(4-methylthiazol-5-yl)benzyl)carbamoyl)pyrrolidin-1-yl)-3,3-dimethyl-1-oxobutan-2-yl)amino)-8-oxooctyl)glutaramide]
EOL1 cell viability (EOL1 cells): did not reduce EOL1 cell viability in a dose dependent manner

CC(C)N(C[C@H]1O[C@@H](n2ccc3c(NCCCCNC(=O)CCCCCCCCCCCCCCCNc4cccc5c4C(=O)N(C4CCC(=O)NC4=O)C5=O)ncnc32)[C@H](O)[C@@H]1O)C1CC(CCc2nc3cc(C(C)(C)C)ccc3[nH]2)C1 (stereo partly drawn) [Compound 5, N-(4-((7-((2R,3R,4S,5R)-5-(((3-(2-(5-(tert-butyl)-1H-benzo[d]imidazol-2-yl)ethyl)cyclobutyl)(isopropyl)amino)methyl)-3,4-dihydroxytetrahydrofuran-2-yl)-7H-pyrrolo[2,3-d]pyrimidin-4-yl)amino)butyl)-16-((2-(2,6-dioxopiperidin-3-yl)-1,3-dioxoisoindolin-4-yl)amino)hexadecanamide]
EOL1 cell viability (EOL1 cells): did not reduce EOL1 cell viability in a dose dependent manner and at early time points

CC(C)N(CCCNC(=O)Nc1ccc(C(C)(C)C)cc1)C[C@H]1O[C@H](n2cnc3c(NCCCCNC(=O)CCCCCCCCCCCCCCCNc4cccc5c4C(=O)N(C4CCC(=O)NC4=O)C5=O)ncnc32)[C@H](O)[C@@H]1O (stereo partly drawn) [Compound 6, N-(4-((9-((2S,3R,4S,5R)-5-(((3-(3-(4-(tert-butyl)phenyl)ureido)propyl)(isopropyl)amino)methyl)-3,4-dihydroxytetrahydrofuran-2-yl)-9H-purin-6-yl)amino)butyl)-16-((2-(2,6-dioxopiperidin-3-yl)-1,3-dioxoisoindolin-4-yl)amino)hexadecanamide]
DOT1L degradation in EOL1 cells (DOT1L [1]): degraded DOT1L in EOL1 cells and in a dose dependent manner up to 5.0 μM
formation of ternary complexes between DOT1L and CRBN (DOT1L:CRBN): induced the formation of ternary complexes between the DOT1L and CRBN
MV411 cell viability (MV411 cells): reduced MV411 cell viability in a dose dependent manner and at early time points
DOT1L binding via displacement of FITC-probe in FP assay (DOT1L [2]): bound DOT1L via displacement of fluorescein isothiocyanate (FITC)-probe in FP assay
DOT1L degradation in MV411 cells (DOT1L [3]): degraded DOT1L in MV411 cells and in a dose dependent manner up to 5.0 μM
EOL1 cell viability (EOL1 cells): reduced EOL1 cell viability in a dose dependent manner and at early time points
SEMK2 cell viability (SEMK2 cells): reduced SEMK2 cell viability in a dose dependent manner and at early time points
THP1 cell viability (THP1 cells): reduced THP1 cell viability in a dose dependent manner and at early time points
